Series [1] in a line: Absorption property in methanol assessed as maximum absorption wavelength by UV-spectra analysis. Type of series: physicochemical.
The target of a further series is Kallikrein-7 (Homo sapiens, UniProt P49862). Put plainly: Inhibition of recombinant C-terminal 10His-tagged human KLK7 (Glu23 to His252 residues) expressed in mouse NS0 cells using 5-FAM-E-A-L-Y-L-V-S-G-C as substrate after 40 mins by fluorescence intensity assay.
Series [2] in a line: Half life in pH 4 to 8 buffer at 0.05 mg/ml over 24 hrs. Type of series: physicochemical.
In another series the test system is Keratinocyte. Put plainly: Induction of irritation in human epidermal keratinocytes assessed as effect on IL1alpha levels over 24 hrs. Format: cell-based.
For a further series, the target named is Kallikrein-1 (Homo sapiens, UniProt P06870). The series can be described thus: Inhibition of recombinant bovine enterokinase activated N-terminal His-tagged recombinant human KLK1 (19 to 262 residues) expressed in baculovirus infected Sf9 insect cells using 3',6'-bis(prolylphenylalanylarginylamino)3H-spiro(2-benzofuran-1,9'-xanthen)-3-one;TFA as substrate measured at 30 secs interval for 5 mins by fluorescence intensity assay.

The target in the next series is T1, Kallikrein-8 (Homo sapiens, UniProt O60259).
T1 sequence (O60259 whole entry): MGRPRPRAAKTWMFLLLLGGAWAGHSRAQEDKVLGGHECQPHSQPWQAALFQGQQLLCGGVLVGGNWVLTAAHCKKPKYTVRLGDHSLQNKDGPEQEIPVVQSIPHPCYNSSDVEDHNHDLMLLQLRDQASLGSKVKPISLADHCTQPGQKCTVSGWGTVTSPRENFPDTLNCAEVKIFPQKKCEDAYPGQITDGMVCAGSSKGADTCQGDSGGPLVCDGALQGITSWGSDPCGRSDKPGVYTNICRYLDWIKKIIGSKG
Put plainly: Inhibition of recombinant C-terminal 10-His tagged human KLK8 (Gln29 to Gly260 residues) expressed in mouse NS0 cells using BOC-VPR-AMC as substrate after 40 mins by fluorescence intensity assay.

A short description of series [3]: Solubility of the compound in pH 6 Britton-Robinson buffer at 24 hrs. The following applies: Britton-Robinson buffer, pH 6. Format: physicochemical.
Another series deals with T2, Kallikrein-5 (Homo sapiens, UniProt Q9Y337).
T2 sequence (Q9Y337 whole entry): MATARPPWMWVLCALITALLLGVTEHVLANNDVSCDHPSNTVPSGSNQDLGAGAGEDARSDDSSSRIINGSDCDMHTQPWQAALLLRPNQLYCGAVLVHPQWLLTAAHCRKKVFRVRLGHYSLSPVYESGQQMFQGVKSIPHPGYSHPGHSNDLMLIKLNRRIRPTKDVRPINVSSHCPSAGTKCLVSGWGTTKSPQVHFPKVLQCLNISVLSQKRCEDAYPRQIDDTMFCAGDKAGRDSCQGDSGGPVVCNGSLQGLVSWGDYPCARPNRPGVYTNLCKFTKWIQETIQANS
Put plainly: Inhibition of recombinant 6His-Q-FLAG tagged human KLK5 expressed in baculovirus infected Sf9 insect cells using (Tos-Gly-Pro-Arg)2[R110].2TFA as substrate measured at 30 secs interval for 5 mins by fluorescence intensity assay. The following applies: read-out: pIC50 (converted).

A further series has as its target Coagulation factor X (Homo sapiens, UniProt P00742). Put plainly: Inhibition of recombinant C-terminal 10His-tagged human coagulation factor 10a (Leu24 to Lys488 residues) expressed in baculovirus infected Sf9 insect cells using Mca-RPKPVE-Nval-WRK(Dnp)-NH2 as substrate after 40 mins by fluorescence intensity assay.
The species entered for series [4] is Homo sapiens. The series can be described thus: Selectivity index, ratio of compound effect for inhibition of recombinant C-terminal 6-His tagged human KLKB1 (Gly20 to Ala638 residues) expressed in mouse NS0 cells to compound effect for inhibition of recombinant 6His-Q-FLAG tagged human KLK5 expressed in baculovirus infected insect Sf9 cells.
Series [5] can be described thus: Half life in pH 6 buffer at 0.05 mg/ml under H2O2-induced oxidative condition over 24 hrs. To be noted: buffer with H2O2, pH 6. Type of series: physicochemical.
The nature of series [6]: Absorption property in methanol assessed as molar extinction co-efficient by UV-spectra analysis. Type of series: physicochemical.
Series [7] is described as follows: Solubility of the compound in pH 4 Britton-Robinson buffer at 24 hrs. The following applies: Britton-Robinson buffer, pH 4. Format: physicochemical.
Series [8] has as its target Urokinase-type plasminogen activator (Homo sapiens, UniProt P00749). The series can be described thus: Inhibition of recombinant C-terminal 10His-tagged human urokinase (Met1 to Leu431 residues) expressed in mouse NS0 cells using Z-GGR-AMC as substrate after 40 mins by fluorescence intensity assay.
For series [9], the species on record is Homo sapiens. The series can be described thus: Selectivity index, ratio of compound effect for inhibition of recombinant human N-terminal met-His6-tagged matriptase catalytic domain (Gly596 to Val855 residues) expressed in Escherichia coli to compound effect for inhibition of recombinant 6His-Q-FLAG tagged human KLK5 expressed in baculovirus infected insect Sf9 cells.

The nature of series [10]: Solubility of the compound in water at 24 hrs. Format: physicochemical.
For series [11], the species on record is Homo sapiens. The series can be described thus: Selectivity index, ratio of compound effect for inhibition of recombinant C-terminal 10-His tagged human coagulation factor 10a (Leu24 to Lys488 residues) expressed in baculovirus infected insect Sf9 cells to compound effect for inhibition of recombinant 6His-Q-FLAG tagged human KLK5 expressed in baculovirus infected insect Sf9 cells.

The species entered for series [12] is Homo sapiens. Put plainly: Selectivity index, ratio of compound effect for inhibition of recombinant C-terminal 10-His tagged human thrombin (Met1 to Glu622 residues) expressed in mouse NS0 cells to compound effect for inhibition of recombinant 6His-Q-FLAG tagged human KLK5 expressed in baculovirus infected insect Sf9 cells.
For a further series, the target named is Plasma kallikrein (Homo sapiens, UniProt P03952). Put plainly: Inhibition of recombinant C-terminal 6-His tagged human KLKB1 (Gly20 to Ala638 residues) expressed in mouse NS0 cells using P-F-R-AMC as substrate after 40 mins by fluorescence intensity assay.
Series [13] is filed under the species Homo sapiens. Put plainly: Selectivity index, ratio of compound effect for inhibition of recombinant C-terminal 10-His tagged human urokinase (Met1 to Leu431 residues) expressed in mouse NS0 cells to compound effect for inhibition of recombinant 6His-Q-FLAG tagged human KLK5 expressed in baculovirus infected insect Sf9 cells.
For series [14], the species on record is Homo sapiens. Put plainly: Selectivity index, ratio of compound effect for inhibition of recombinant C-terminal 10-His tagged human KLK14 (Gln19 to Met248 residues) expressed in mouse NS0 cells to compound effect for inhibition of recombinant 6His-Q-FLAG tagged human KLK5 expressed in baculovirus infected insect Sf9 cells.
The target of the next series is Prothrombin (Homo sapiens, UniProt P00734). The series can be described thus: Inhibition of recombinant C-terminal 10His-tagged human thrombin (Met1 to Glu622 residues) expressed in mouse NS0 cells using BOC-VPR-AMC as substrate after 40 mins by fluorescence intensity assay.

Each structure is given as a SMILES string. Converted amounts (≈) assume the structure as drawn. Bounds are passed on as bounds.

One may read the half-life as how long it takes for the measured level to halve. Low values mean fast loss, high ones slow loss. In general, solubility refers to how much of the substance goes into solution per volume. In the case of `N=C(N)c1ccc(NCc2nc(-c3ccccc3)c[nH]2)cc1OCc1cccnc1`, the results for the Activity (in [1]; with Keratinocyte; in [6]) were over 290 nm, “Non-Toxic” and over 1000 a.u.L/mol.cm, respectively. For the same compound, the IC50 at Kallikrein-7 is over 100 µM; on Kallikrein-1, 63.1 µM; on Kallikrein-8 it was 0.794 µM; at Kallikrein-5 it was 0.0794 µM; on Coagulation factor X it was over 100 µM; in [8], over 100 µM. In addition, the IC50 at Plasma kallikrein was 6.31 µM; at Prothrombin it was 63.1 µM. Moreover, the half-life at 0.05 mg/ml in [2] is over 1000 h; in [5], 27.8 h. Also, the solubility at 24 h in series [3] is 0.29 mg/mL (≈ 728 µM); in [7], 1 mg/mL (≈ 2510 µM); in series [10], 1 mg/mL (≈ 2510 µM). For the same compound, the Selectivity Index in the series listed under Homo sapiens [4], in the series listed under Homo sapiens [9], in the series listed under Homo sapiens [11], in the series listed under Homo sapiens [12], in the series filed under Homo sapiens [13] and in the series filed under Homo sapiens [14] was over 100 in each case.
